From patent US4138492A, “Aromatic amides of heterocyclic compounds and therapeutic compositions containing same” (priority 1974, dated 1979)
Structures can show the parent of a compound that is named as a salt. Where two headings read alike, the source gives them in different places.

Experiments:
[1] = Pharmacokinetics after oral administration of high doses of the malate salt; format: in vivo
healthy male volunteers = assay: Acute tolerance following intramuscular and intravenous administration in humans; format: in vivo
Protocol: Another study has been made to investigate the acute tolerance of the malate salt of Clebopride following intramuscular and intravenous administration in humans.
The subjects used were healthy male volunteers between 20 and 24 years of age and were divided into 8 groups and dosed with the test compound according to the following scheme:
Group I: 1 mg intramuscular per day for 5 days
Group II: 1.5 mgs intrasmuscular per day for 5 days
Group III: 2 mgs intramuscular per day for 5 days
Group IV: 0.25 mg intravenously per day for 5 days
Group V: 0.50 mg intravenously per day for 5 days
Group VI: 1 mg intravenously per day for 5 days
Group VII: 1.5 mgs intravenously per day for 5 days
Group VIII: 2 mgs intravenously per day for 5 days
The parameters evaluated were subjective symptoms; psychic disturbances; neurological disturbances; autonomic symptoms; digestive disturbances; urogenital disturbances; skin and mucous membranes; pulse; blood pressure; temperature; other side effects; blood analysis--leucocytes formula, hemoglobin content, erythrocyte sedimentation rate, glucose, cholesterol, urea, hepatic function tests, transaminasas; and urine analysis--density, albumin, sediment.

[2] = Local anaesthetic activity in mice; format: in vivo; conditions: compared with metoclopramide or procaine
incoordination [3] = assay: Incoordination on accelerating rota-rod in the mouse
autonomic nervous system = assay: Effect on the autonomic nervous system; conditions: in vivo
inflammation = assay: Anti-inflammatory activity; conditions: in vivo
[4] = system: apomorphine-induced gnawing; assay: Antiapomorphine activity (apomorphine-induced gnawing) in the rat; format: in vivo
Source text: A number of the compounds of the present invention were screened in parallel with metoclopramide for potential anti-emetic effects against apomorphine-induced gnawing in the rat and as local anaesthetics on the rat sciatic nerve (Table I).
*Antiapomorphine activity in rat scored as […]

[5] = Therapeutic effect and side effects in humans; format: in vivo; conditions: suitable doses
Protocol: They may be used in doses of from 0.1 to 1000 mg per day for the treatment of nausea and vomiting due to gastrointestinal disorders, congestive heart failure, post operative conditions, etc., other gastrointestinal tract disorders such as dyspepsia, flatulence, bile regurgitations, hiatus hernia, peptic ulcer, reflux aerophagitis, gastritis, duodenitis and cholethiasis, and as an adjunt to radiography of the gastrointestinal tract and for overcoming gastrointestinal stasis for diagnostic or therapeutic purposes and a variety of conditions affecting the central nervous system such as acute and chronic psychoses, maniacal psychosis, schizophrenias, serious disturbances of behavior and non-melancholic depressive state and migraine.
A number of the instant compounds, particularly the hydrogen chloride, malate and methanesulfonate salts of Clebopride have been extensively tested in humans to determine maximum dosages and the therapeutic effects of the compounds. These compounds have been administered to humans orally and parenterally.
Dosages of between 0.1 and 30 mg per day have been shown useful depending upon the length of treatment and therapeutic effect desired.

[6] = Metabolism and pharmacokinetics in the rat; format: in vivo
[7] = system: apomorphine-induced vomiting; assay: Apomorphine-induced vomiting in the dog; format: in vivo; conditions: for ED50: Canis lupus familiaris, po, per os, Table II, read-out: ED50 (95% confidence limits), apomorphine induced vomiting
gastric emptying = assay: Decrease of gastric emptying time in rats; format: in vivo, rat; conditions: compared with metoclopramide
[8] = system: spontaneous motor activity; assay: Spontaneous motor activity in the mouse
[9] = Metabolism and pharmacokinetics in the rabbit; format: in vivo
[10] = system: electrically induced convulsions; assay: Electrically induced convulsions in mice; format: in vivo
parasympathetic system = assay: Parasympatholytic activity; conditions: in vivo
[11] = system: cardiovascular and respiratory systems; assay: Cardiovascular and respiratory effects in cats anaesthetized with chloralose; format: in vivo
Source text: HCl-Clebopride salt has weak effects on the cardiovascular and respiratory systems.

[12] = system: convulsions induced by leptazol; assay: Leptazol-induced convulsions in the mouse; format: in vivo
in vivo = conditions: rat, po
[13] = system: spontaneous motor activity; conditions: mouse, in vivo
incoordination [14] = conditions: mouse, in vivo
oxotremorine [15] = conditions: mouse, in vivo
[16] = system: gastric emptying time in humans; assay: Gastric emptying in humans, evaluated by radiologist; format: in vivo; set-up: key to effect on gastric emptying: +: no effect; ++: moderate effect; +++: good effect; ++++: maximum effect
Source text: The evaluation was based on the subjective opinion of the radiologist in terms of the time required for the appearance of peristaltic waves and their capacity to evacuate. the stomach, according to the following scheme:

[17] = system: convulsions induced by strychnine; assay: Strychnine-induced convulsions in the mouse; format: in vivo
oxotremorine [18] = assay: Oxotremorine test in mice; conditions: mice previously treated with sub-threshold dose of oxotremorine
writhing syndrome = assay: Writhing syndrome induced by intra-peritoneal acetic acid in mice; format: in vivo; conditions: 300 mg/kg per os
Source text: The HCl-Clebopride salt does have antipyretic and analgesic activity.

[19] = Rattus norvegicus, po; per os; Table I; read-out: ED50 Values
[20] = cats, slow intravenous infusion 1 mg/kg/min. to total 10 mg/kg
[21] = Rattus norvegicus, po; rats; per os; Table III; read-out: Antiapomorphine Activity, Rats, ED50 (95% confidence limits)
[22] = 2 mg, compared with 20 mg of metoclopramide

COc1cc(N)c(Cl)cc1C(=O)NC1CCN(Cc2ccccc2)CC1 [malate salt of Clebopride, N-[4'-(1'-benzyl)piperidyl]-2-methoxy-4-amino-5-chlorobenzamide malate]
absorption ([1]; high doses): good absorption
appearance of metabolites in blood ([1]; high doses): rapid appearance of metabolites in blood
peak levels ([1]; high doses): rapidly appearing peak levels
plasma concentrations ([1]; high doses): relatively low plasma concentrations
first pass metabolism and/or uptake in the liver ([1]; suggested): extensive first pass metabolism and/or uptake take place in the liver
side effects (healthy male volunteers; Group I: 1 mg intramuscular per day for 5 days, four subjects): one case of slight sleepiness was noted from the second day of treatment
side effects (healthy male volunteers; Group II: 1.5 mgs intramuscular per day for 5 days, four subjects): Tiredness, sleepiness and fatigue in three of the four subjects in Group II accompanied with slight depression
side effects (healthy male volunteers; Group III: 2 mgs intramuscular per day for 5 days, four subjects): Three of the four subjects in Group III showed sleepiness, fatigue and depression followed by euphoria
blood and urine analysis (healthy male volunteers; Groups II and VII): no significant variations
dose dependence of side effects (healthy male volunteers; Groups IV to VIII, intravenous): not to be dose dependent
side effects (healthy male volunteers; Groups IV to VIII: 0.25 to 2 mgs intravenously per day for 5 days): Sleepiness, fatigue and depression of medium intensity were seen in many patients
additional side effects (healthy male volunteers; Groups VII and VIII: 1.5 and 2 mgs intravenously per day for 5 days): some degree of sweating, hypersalivation and dryness of the mouth were variously seen

COc1cc(N)c(Cl)cc1C(=O)NC1CCN(Cc2ccccc2)CC1 [Compound 2, N-[4'-(1'-benzyl)-piperidyl]-2-methoxy-4-amino-5-chloro-benzamide]
local anaesthetic potency [2]: somewhat greater than that of either metoclopramide or procaine
incoordination (incoordination [3]): cause incoordination
effect on the autonomic nervous system (autonomic nervous system): does not have an appreciable effect
anti-inflammatory activity (inflammation): weak anti-inflammatory activity
ED50 [4, 19]: ~3 mg/kg
activity as an anti-emetic ([4]; compared with metoclopramide; from Table I): more active as an anti-emetic
side effects [5]: virtually free of side effects
N-Debenzylation [6]: major metabolic reaction
cleavage of the amide bond [6]: does not appear to be a major matabolic reaction
extent of metabolism [6]: extensively metabolized
unchanged drug excreted in the urine [6]: Only very little
activity against apomorphine-induced vomiting [7]: high activity
ED50 [7]: 0.0435 mg/kg
potency relative to metoclopramide ([7]; oral route): approximately 8 times
ability to decrease gastric emptying time, potency (gastric emptying): potency similar to that of metoclopramide
spontaneous motor activity [8]: inhibit spontaneous motor activity
N-Debenzylation [9]: major metabolic reaction
cleavage of the amide bond [9]: does not appear to be a major matabolic reaction
conjugation with glucuronic acid and/or sulphate [9]: occurs at a large extent in the rabbit
extent of metabolism [9]: extensively metabolized
unchanged drug excreted in the urine [9]: Only very little
anti-convulsant activity ([10]; mouse, in vivo): has anti-convulsant activity
parasympatholytic activity (parasympathetic system): no appreciable parasympatholytic activity
blood pressure [11, 20]: slight fall
heart rate [11, 20]: slight fall
respiratory movements [11, 20]: slowing of respiratory movements
effects on the cardiovascular and respiratory systems ([11]; in vivo): weak effects
inhibition of clonic seizures induced by leptazol [12]: apparently not clonic seizures
inhibition of tonic convulsions (antileptazol) [12]: inhibits tonic convulsions

CN(C)CCCN1c2ccccc2Sc2ccc(Cl)cc21 [Chlorpromazine, reference compound]
ED50 ([4]; Rattus norvegicus, po, read-out: Antiapomorphine Activity, Rats, ED50 (95% confidence limits)): 7.95 mg/kg
minimal effective dose ([4]; Rattus norvegicus, read-out: Antiapomorphine in rat): 6.25 mg/kg
TD50 (in vivo): 12.3 mg/kg

CCN(CC)CCNC(=O)c1cc(Cl)c(N)cc1OC [Metoclopramide, reference compound]
antiemetic doses compared with those causing catatonia (catatonia in rats; rat, in vivo): at doses which are far removed from those causing catatonia
ED50 [4, 19]: ~6 mg/kg
ED50 [4, 21]: 11.8 mg/kg
minimal effective dose ([4]; Rattus norvegicus; read-out: Antiapomorphine in rat): 12.5 mg/kg
spontaneous motor activity [13]: inhibit spontaneous motor activity
TD50 (in vivo): 93 mg/kg
incoordination (incoordination [14]): cause incoordination
salivation and tremors (oxotremorine [15]): capable of causing salivation and tremors
ED50 [7]: 0.343 mg/kg
effect on gastric emptying ([16]; 10-20 mgs, as a guide): +++
inhibition of convulsions induced by strychnine [17]: neither Clebopride nor metoclopramide appear to inhibit convulsions induced by strychnine

COc1cc(N)c(Cl)cc1C(=O)NC1CCN(Cc2ccccc2)CC1 [Clebopride, N-[4'-(1'-benzyl)-piperidyl]-2-methoxy-4-amino-5-chloro-benzamide]
catatonia (catatonia in rats; rat, in words): noted in the rat
antiemetic doses compared with those causing catatonia (catatonia in rats; rats, Table III): exhibits antiemetic activity (anti-apomorphine activity) at doses which are far removed from those causing catatonia
salivation and tremors (oxotremorine [18]): capable of causing salivation and tremors
ED50 [4, 21]: 1.85 mg/kg
inhibition of writhing syndrome (writhing syndrome): almost completely inhibited the writhing syndrome
TD50 (in vivo): 47.6 mg/kg
pharmacokinetics after intravenous administration ([6]; intravenous): follows a similar pattern in both species
No. of Patients with + (no effect) ([16]; 0.2 mg by mouth, 6 patients): 0
No. of Patients with ++ (moderate effect) ([16]; 0.2 mg by mouth, 6 patients): 0
No. of Patients with +++ (good effect) ([16]; 0.2 mg by mouth, 6 patients): 6
No. of Patients with ++++ (maximum effect) ([16]; 0.2 mg by mouth, 6 patients): 0
contraction of the stomach ([16]; 0.2 mg, compared with 20 mgs of metoclopramide): as rapid and forceful contraction of the stomach as 20 mgs of metoclopramide
No. of Patients with + (no effect) ([16]; 1 mg by mouth, 6 patients): 1
No. of Patients with ++ (moderate effect) ([16]; 1 mg by mouth, 6 patients): 2
No. of Patients with +++ (good effect) ([16]; 1 mg by mouth, 6 patients): 3
No. of Patients with ++++ (maximum effect) ([16]; 1 mg by mouth, 6 patients): 0
No. of Patients with + (no effect) ([16]; 2 mg by mouth, 8 patients): 0
No. of Patients with ++ (moderate effect) ([16]; 2 mg by mouth, 8 patients): 2
No. of Patients with +++ (good effect) ([16]; 2 mg by mouth, 8 patients): 3
No. of Patients with ++++ (maximum effect) ([16]; 2 mg by mouth, 8 patients): 3
contraction of the stomach [16, 22]: more forceful contraction than 20 mg of metoclopramide
onset of action [16, 22]: more rapid onset of action
No. of Patients with + (no effect) ([16]; 5 mg by mouth, 9 patients): 0
No. of Patients with ++ (moderate effect) ([16]; 5 mg by mouth, 9 patients): 2
No. of Patients with +++ (good effect) ([16]; 5 mg by mouth, 9 patients): 0
No. of Patients with ++++ (maximum effect) ([16]; 5 mg by mouth, 9 patients): 7
pharmacokinetics after intravenous administration ([9]; intravenous): follows a similar pattern in both species
inhibition of convulsions induced by strychnine [17]: neither Clebopride nor metoclopramide appear to inhibit convulsions induced by strychnine
potency in preventing electrically induced convulsions ([10]; mice): somewhat more potent than metoclopramide
